Laboratory results: patent US20100267561A1, “HERBICIDAL PYRIDAZINONE DERIVATIVES” (priority 2007, published 2010)

Tests used:
Assay type in all cases: in vivo
[1] = tested on: barnyardgrass (Echinochloa crus-galli); assay: Test A pre-/postemergence plant response
Excerpt: (§1) Seeds of species selected from barnyardgrass (Echinochloa crus-galli), large crabgrass (Digitaria sanguinalis), giant foxtail (Setaria faberi), blackgrass (Alopecurus myosuroides), canarygrass (Phalaris minor), morningglory (Ipomoea coccinea), pigweed (Amaranthus retroflexus), velvetleaf (Abutilon theophrasti), wheat (Triticum aestivum), and corn (Zea mays) were planted into a blend of loam soil and sand and treated preemergence with a directed soil spray using test chemicals formulated in a non-phytotoxic solvent mixture which included a surfactant. At the same time these species were also treated with postemergence applications of test chemicals formulated in the same manner.
(§2) Plants ranged in height from 2 to 10 cm and were in the one- to two-leaf stage for the postemergence treatment. Treated plants and untreated controls were maintained in a greenhouse for approximately 10 days, after which time all treated plants were compared to untreated controls and visually evaluated for injury. Plant response ratings, summarized in Table A, are based on a 0 to 100 scale where 0 is no effect and 100 is complete control. A dash (-) response means no test results.

corn (Zea mays) = assay: Test A pre-/postemergence plant response
Excerpt: as §1, §2

[2] = tested on: giant foxtail (Setaria faberi); assay: Test A pre-/postemergence plant response
Excerpt: as §1, §2

[3] = tested on: large crabgrass (Digitaria sanguinalis); assay: Test A pre-/postemergence plant response
Excerpt: as §1, §2

[4] = tested on: morningglory (Ipomoea coccinea); assay: Test A pre-/postemergence plant response
Excerpt: as §1, §2

[5] = tested on: pigweed (Amaranthus retroflexus); assay: Test A pre-/postemergence plant response
Excerpt: as §1, §2

[6] = tested on: velvetleaf (Abutilon theophrasti); assay: Test A pre-/postemergence plant response
Excerpt: as §1, §2

[7] = tested on: wheat (Triticum aestivum); assay: Test A pre-/postemergence plant response
Excerpt: as §1, §2

[8] = tested on: barnyardgrass (Echinochloa crus-galli); assay: Test B flooded paddy test plant response
Excerpt: (§3) Plant species in the flooded paddy test consisted of rice (Oryza sativa), umbrella sedge (Cyperus difformis), ducksalad (Heteranthera limosa) and barnyardgrass (Echinochloa crus-galli) grown to the 2-leaf stage for testing. At time of treatment, test pots were flooded to 3 cm above the soil surface, treated by application of test compounds directly to the paddy water, and then maintained at that water depth for the duration of the test. Treated plants and controls were maintained in a greenhouse for 13 to 15 days, after which time all species were compared to controls and visually evaluated. Plant response ratings, summarized in Table B, are based on a scale of 0 to 100 where 0 is no effect and 100 is complete control. A dash (-) response means no test result.

[9] = tested on: ducksalad (Heteranthera limosa); assay: Test B flooded paddy test plant response
Excerpt: as §3

rice (Oryza sativa) = assay: Test B flooded paddy test plant response
Excerpt: as §3

[10] = tested on: umbrella sedge (Cyperus difformis); assay: Test B flooded paddy test plant response
Excerpt: as §3

[11] = Postemergence, 125 g ai/ha, 0 to 100 scale, 0 no effect, 100 complete control
[12] = Postemergence, 500 g ai/ha, 0 to 100 scale, 0 no effect, 100 complete control
[13] = Preemergence, 125 g ai/ha, 0 to 100 scale (0 no effect, 100 complete control)
[14] = Preemergence, 500 g ai/ha, 0 to 100 scale (0 no effect, 100 complete control)
[15] = Flood (flooded paddy test), 62 g ai/ha, scale 0 to 100, 0 no effect, 100 complete control
[16] = Flood (flooded paddy test), 125 g ai/ha, scale 0 to 100, 0 no effect, 100 complete control
[17] = Flood (flooded paddy test), 250 g ai/ha, scale 0 to 100, 0 no effect, 100 complete control
[18] = Flood, 31 g ai/ha, scale 0 to 100

Cc1cc(-c2ccc(OC(F)(F)F)cc2)nn1-c1c(OC(=O)OC(C)C)cnn(C)c1=O [Compound 13]
Plant response rating, Barnyardgrass [1, 11]: 50
Plant response rating, Barnyardgrass [1, 12]: 90
Plant response rating, Barnyardgrass [1, 13]: 60
Plant response rating, Barnyardgrass [1, 14]: 100
Plant response rating, Corn (corn (Zea mays); [11]): 30
Plant response rating, Corn (corn (Zea mays); [12]): 60
Plant response rating, Corn (corn (Zea mays); [13]): 20
Plant response rating, Corn (corn (Zea mays); [14]): 70
Plant response rating, Foxtail, Giant [2, 11]: 70
Plant response rating, Foxtail, Giant [2, 12]: 80
Plant response rating, Foxtail, Giant [2, 13]: 70
Plant response rating, Foxtail, Giant [2, 14]: 100
Plant response rating, Crabgrass, Large [3, 11]: 20
Plant response rating, Crabgrass, Large [3, 12]: 80
Plant response rating, Crabgrass, Large [3, 13]: 60
Plant response rating, Crabgrass, Large [3, 14]: 90
Plant response rating, Morningglory [4, 11]: 0
Plant response rating, Morningglory [4, 12]: 0
Plant response rating, Morningglory [4, 13]: 0
Plant response rating, Morningglory [4, 14]: 0
Plant response rating, Pigweed [5, 11]: 0
Plant response rating, Pigweed [5, 12]: 0
Plant response rating, Pigweed [5, 13]: 0
Plant response rating, Pigweed [5, 14]: 0
Plant response rating, Velvetleaf [6, 11]: 0
Plant response rating, Velvetleaf [6, 12]: 0
Plant response rating, Velvetleaf [6, 13]: 0
Plant response rating, Velvetleaf [6, 14]: 20
Plant response rating, Wheat [7, 11]: 50
Plant response rating, Wheat [7, 12]: 60
Plant response rating, Wheat [7, 13]: 20
Plant response rating, Wheat [7, 14]: 70
Plant response rating, Barnyardgrass [8, 15]: 0
Plant response rating, Barnyardgrass [8, 16]: 0
Plant response rating, Barnyardgrass [8, 17]: 0
Plant response rating, Barnyardgrass [8, 18]: 0
Plant response rating, Ducksalad [9, 15]: 0
Plant response rating, Ducksalad [9, 16]: 0
Plant response rating, Ducksalad [9, 17]: 0
Plant response rating, Ducksalad [9, 18]: 0
Plant response rating, Rice (rice (Oryza sativa); [15]): 0
Plant response rating, Rice (rice (Oryza sativa); [16]): 0
Plant response rating, Rice (rice (Oryza sativa); [17]): 0
Plant response rating, Rice (rice (Oryza sativa); [18]): 0
Plant response rating, Sedge, Umbrella [10, 15]: 0
Plant response rating, Sedge, Umbrella [10, 16]: 0
Plant response rating, Sedge, Umbrella [10, 17]: 0
Plant response rating, Sedge, Umbrella [10, 18]: 0
